The results in this text go back to patent publication US11091447B2, “UBE2K modulators and methods for their use” (Berg LLC, priority 2020, dated 2021).

Each structure is given as a SMILES string. Where only a bound is given, the exact number is not on record here.

This test relates to MIA PaCa-2 cells. Description: Cellular viability assay (Cell Titer Fluor). Format: cell-based. The settings on record: 72 hours incubation. As for the experimental part: Cell viability were performed using the Cell Titer Fluor™ Assays (Promega G6080). MIA PaCa-2 cells are grown in DMEM media with 10% FBS, 1% Pen/Strep/Amphotericin B. Cells are trypsinized and counted using the Nexcelom cellometer. 5,000 cells/100 μl are plated per well in Greiner black/clear 96-well plates. Cells should be within 10 passages of stock vial for use in workflow. Three distinct lineages of these cells are cultured in parallel for multiple passages and 5 full plates of each lineage are seeded for one run. Small molecule compounds are provided as 100 mM stock solutions in DMSO. Dilution series plates are prepared using 1:3 dilution to achieve a 7 point concentration on a half log scale. After addition of compounds, cells are incubated 37° C., 5% CO2 for 72 hours.
For each test compound condition, triplicate technical replicates are used. For each reference compound, duplicate technical replicates are used. At the end of the 72-hour incubation, spent media is discarded. Then, 100 μl of GF-AFC diluted in DMEM (serum and phenol red-free) is added at 1:2000 concentration (5 μl/10 ml). Cells are incubated with reaction buffer for 1 h at 37° C. Fluorescence is then read on the plate reader with excitation wavelength of 390 nm and emission wavelength of 505 nm. All raw data are analyzed on Microsoft Excel 2010 and normalized to the DMSO vehicle control. Relative results are copied into GraphPad Prism for non-linear regression analysis and determination of IC50 and other dose curve parameters (min, max, Hill slope, etc.) using the log (inhibitor) vs. response equation. Values are as follows: A represents an IC50 of <[…], B represents an IC50 of 1 mM to 10 mM, C represents an IC50 of >10 mM.

For the setting “Homo sapiens, MIA PaCa-2, 72 h”, `COc1ccc(F)cc1-c1nc(CNC(=O)c2cc(F)ccc2OC(F)F)n[nH]1` [Comp 137] gave an IC50 of under 1 µM.

The compound `O=C(NCc1cc(-c2cccs2)[nH]n1)c1ccccc1OC(F)F` [Compound 4] yielded an IC50 (Homo sapiens, MIA PaCa-2, 72 h) of over 10 µM. The compound `O=C(NCc1cc(-c2cccs2)[nH]n1)c1ccccc1OC(F)(F)F` [Compound 5] gave an IC50 (Homo sapiens, MIA PaCa-2, 72 h) of over 10 µM. Same read-out and setting: under `O=C(NCc1n[nH]c(-c2cccs2)n1)c1ccccc1CC(F)(F)F` [Compound 8] stands over 10 µM; under `O=C(NCc1cc(-c2cccs2)[nH]n1)c1ccc(O)cc1C(F)(F)F` [Compound 13], over 10 µM; under `O=C(NCc1n[nH]c(-c2cccs2)n1)c1ccccc1OC(F)(F)F` [Compound 14], over 10 µM.

`O=C(NCc1n[nH]c(-c2cccs2)n1)c1ccccc1OC(F)F` [Compound 15] had an IC50 (Homo sapiens, MIA PaCa-2, 72 h) of over 10 µM.

Regarding `Cc1cscc1-c1cc(CNC(=O)c2ccccc2OC(F)(F)F)n[nH]1` [Compound 16, N-((5-(4-methylthiophen-3-yl)-1H-pyrazol-3-yl)methyl)-2-(trifluoromethoxy) benzamide], the IC50 (Homo sapiens, MIA PaCa-2, 72 h) was over 10 µM.

As to `Cc1sccc1-c1cc(CNC(=O)c2ccccc2OC(F)(F)F)n[nH]1` [Compound 17], the IC50 (Homo sapiens, MIA PaCa-2, 72 h) is over 10 µM. The same measure, in the same setting: under `COc1ccc(C(F)(F)F)cc1-c1cc(CNC(=O)c2ccccc2OC(F)(F)F)n[nH]1` [Compound 20] stands over 10 µM; under `O=C(NCc1cc(-c2csc(Cl)c2)[nH]n1)c1ccccc1OC(F)(F)F` [Compound 21], over 10 µM; under `O=C(NCc1cc(-c2ccsc2Cl)[nH]n1)c1ccccc1OC(F)(F)F` [Compound 22], over 10 µM. On the same count and under the same terms, the result for `Cc1cn[nH]c1-c1cc(CNC(=O)c2ccccc2OC(F)(F)F)n[nH]1` [Compound 24] reads over 10 µM; that for `O=C(NCc1cc(-c2ccn[nH]2)[nH]n1)c1ccccc1OC(F)(F)F` [Compound 25], over 10 µM; that for `COc1ncccc1-c1cc(CNC(=O)c2ccccc2OC(F)(F)F)n[nH]1` [Compound 27], over 10 µM. The same measure, in the same setting: under `O=C(NCc1cc(-c2cccnc2O)[nH]n1)c1ccccc1OC(F)(F)F` [Compound 28] stands over 10 µM; under `O=C(NCc1cc(-c2cccc3cn[nH]c23)[nH]n1)c1ccccc1OC(F)(F)F` [Compound 29], over 10 µM; under `CN(C)c1ccccc1-c1cc(CNC(=O)c2ccccc2OC(F)(F)F)n[nH]1` [Compound 30], over 10 µM. With `COc1ccccc1-c1cc(CNC(=O)c2ccccc2OC(F)(F)F)n[nH]1` [Compound 31], the IC50 (Homo sapiens, MIA PaCa-2, 72 h) was under 1 µM. Same read-out and setting: under `COc1ccncc1-c1cc(CNC(=O)c2ccccc2OC(F)(F)F)n[nH]1` [Compound 33] stands 1 to 10 µM; under `COc1cccnc1-c1nc(CNC(=O)c2ccccc2OC(F)(F)F)n[nH]1` [Compound 34, N-((5-(3-methoxypyridin-2-yl)-1H-1,2,4-triazol-3-yl)methyl)-2-(trifluoromethoxy)benzamide], 1 to 10 µM. `COc1ccncc1-c1nc(CNC(=O)c2ccccc2OC(F)(F)F)n[nH]1` [Compound 35] yielded an IC50 (Homo sapiens, MIA PaCa-2, 72 h) of 1 to 10 µM. Still for that read-out and setting: the result for `COc1ccsc1-c1cc(CNC(=O)c2ccccc2OC(F)(F)F)n[nH]1` [Compound 36] reads under 1 µM; that for `COc1cnccc1-c1cc(CNC(=O)c2ccccc2OC(F)(F)F)n[nH]1` [Compound 37], over 10 µM; that for `COc1ccc(OC)c(-c2cc(CNC(=O)c3ccccc3OC(F)(F)F)n[nH]2)c1` [Compound 39], over 10 µM.

For the setting “Homo sapiens, MIA PaCa-2, 72 h”, `O=C(NCc1cc(-c2cc(O)ccc2O)[nH]n1)c1ccccc1OC(F)(F)F` [Compound 40, N-((5-(2,5-dihydroxyphenyl)-1H-pyrazol-3-yl)methyl)-2-(trifluoromethoxy) benzamide] gave an IC50 of over 10 µM. The same measure, in the same setting: the result for `O=C(NCc1cc(-c2cccc(O)c2O)[nH]n1)c1ccccc1OC(F)(F)F` [Compound 43] reads over 10 µM; that for `CCOc1ccc(F)cc1-c1cc(CNC(=O)c2ccccc2OC(F)(F)F)n[nH]1` [Compound 44], 1 to 10 µM; that for `CCOc1ccc(Cl)cc1-c1cc(CNC(=O)c2ccccc2OC(F)F)n[nH]1` [Compound 47], over 10 µM. Consider `COc1ccc(Cl)cc1-c1cc(CNC(=O)c2ccccc2OC(F)(F)F)n[nH]1` [Compound 48], for which the IC50 (Homo sapiens, MIA PaCa-2, 72 h) was 1 to 10 µM.

For `COc1c(F)cc(F)cc1-c1cc(CNC(=O)c2ccccc2OC(F)(F)F)n[nH]1` [Compound 49], the IC50 (Homo sapiens, MIA PaCa-2, 72 h) lay within 1 to 10 µM. On the same count and under the same terms, under `O=C(NCc1cc(-c2cc(F)cc(F)c2O)[nH]n1)c1ccccc1OC(F)(F)F` [Compound 50] stands over 10 µM; under `COc1ccc(F)cc1-c1cc(CNC(=O)c2ccccc2OC(F)(F)F)n[nH]1` [Compound 51], under 1 µM. In turn, `O=C(NCc1cc(-c2cc(F)ccc2O)[nH]n1)c1ccccc1OC(F)(F)F` [Compound 52] came in with an IC50 of over 10 µM. For the compound `O=C(NCc1cc(-c2ccccc2O)[nH]n1)c1ccccc1OC(F)(F)F` [Compound 53], the IC50 (Homo sapiens, MIA PaCa-2, 72 h) was under 1 µM. Regarding `CCOc1ccccc1-c1nc(CNC(=O)c2ccccc2OC(F)(F)F)n[nH]1` [Compound 57], under “Homo sapiens, MIA PaCa-2, 72 h”, the IC50 was under 1 µM. Same read-out and setting: under `CCOc1ccccc1-c1nc(CNC(=O)c2ccccc2OC(F)F)n[nH]1` [Compound 58] stands under 1 µM; under `CCOc1ccc(Br)cc1-c1nc(CNC(=O)c2ccccc2OC(F)F)n[nH]1` [Compound 59], over 10 µM; under `O=C(NCc1n[nH]c(-c2ccccc2O)n1)c1ccccc1OC(F)F` [Compound 60, 2-(Difluoromethoxy)-N-((5-(2-hydroxyphenyl)-1H-1,2,4-triazol-3-yl)methyl) benzamide], under 1 µM. Still for that read-out and setting: under `O=C(NCc1n[nH]c(-c2cccc(O)c2O)n1)c1ccccc1OC(F)F` [Compound 61, 2-(Difluoromethoxy)-N-((5-(2,3-dihydroxyphenyl)-1H-1,2,4-triazol-3-yl)methyl) benzamide] stands 1 to 10 µM. Same read-out and setting: the result for `COc1c(O)cccc1-c1nc(CNC(=O)c2ccccc2OC(F)F)n[nH]1` [Compound 62, 2-(difluoromethoxy)-N-((5-(3-hydroxy-2-methoxyphenyl)-1H-1,2,4-triazol-3-yl)methyl) benzamide] reads 1 to 10 µM; that for `COc1ccc(O)cc1-c1nc(CNC(=O)c2ccccc2OC(F)F)n[nH]1` [Compound 63, 2-(Difluoromethoxy)-N-((5-(5-hydroxy-2-methoxyphenyl)-1H-1,2,4-triazol-3-yl)methyl) benzamide], 1 to 10 µM.

Where the note is “Homo sapiens, MIA PaCa-2, 72 h”, `O=C(NCc1n[nH]c(-c2cc(O)ccc2O)n1)c1ccccc1OC(F)F` [Compound 64] displayed an IC50 of 1 to 10 µM. Same read-out and setting: the result for `O=C(NCc1cc(-c2cccs2)[nH]n1)c1ccccc1N1CCC(F)(F)CC1` [Compound 65] reads under 1 µM; that for `O=C(NCc1cc(-c2cccs2)[nH]n1)c1ccccc1N1CCC(F)(F)C1` [Compound 66], under 1 µM; that for `O=C(NCc1cc(-c2cccs2)[nH]n1)c1ccccc1N1CCCCC1` [Compound 68], under 1 µM. On the same count and under the same terms, the result for `O=C(NCc1cc(-c2cccs2)[nH]n1)c1ccccc1N1CCOCC1` [Compound 69] reads under 1 µM; that for `O=C(NCc1cc(-c2cccs2)[nH]n1)c1ccccc1N1CCS(=O)(=O)CC1` [Compound 70], over 10 µM. The same measure, in the same setting: under `CN1CCN(c2ccccc2C(=O)NCc2cc(-c3cccs3)[nH]n2)CC1` [Compound 71] stands 1 to 10 µM; under `O=C(NCc1cc(-c2cccs2)[nH]n1)c1ccccc1N1CCCC1` [Compound 72], under 1 µM; under `O=C(NCc1n[nH]c(-c2cccs2)n1)c1ccccc1NCC(F)F` [Compound 73], over 10 µM.

Under “Homo sapiens, MIA PaCa-2, 72 h”, `O=C(NCc1n[nH]c(-c2cccs2)n1)c1ccccc1N1CC(F)(F)C1` [Compound 74] displayed an IC50 of over 10 µM. On the same count and under the same terms, under `O=C(NCc1n[nH]c(-c2cccs2)n1)c1ccccc1N1CCC(F)(F)C1` [Compound 75] stands under 1 µM; under `O=C(NCc1n[nH]c(-c2cccs2)n1)c1ccccc1N1CCC(F)(F)CC1` [Compound 76, 2-(4,4-difluoropiperidin-1-yl)-N-((5-(thiophen-2-yl)-1H-1,2,4-triazol-3-yl)methyl) benzamide], 1 to 10 µM. On the same count and under the same terms, the result for `O=C(NCc1cc(-c2cccs2)[nH]n1)c1cc(C(F)(F)F)ccc1N1CCCC(F)(F)C1` [Compound 78] reads under 1 µM; that for `O=C(NCc1cc(-c2cccs2)[nH]n1)c1cccc(C(F)(F)F)c1N1CCCCC1` [Compound 79], 1 to 10 µM; that for `O=C(NCc1cc(-c2cccs2)[nH]n1)c1cc(F)ccc1N1CCCCC1` [Compound 80, 5-fluoro-2-(piperidin-1-yl)-N-((5-(thiophen-2-yl)-1H-pyrazol-3-yl)methyl) benzamide], under 1 µM. On the same count and under the same terms, the result for `O=C(NCc1cc(-c2cccs2)[nH]n1)c1cc(O)ccc1N1CCCC(F)(F)C1` [Compound 81] reads 1 to 10 µM.

Under “Homo sapiens, MIA PaCa-2, 72 h”, `O=C(NCc1cc(-c2cccs2)[nH]n1)c1cccc(C(F)(F)F)c1N1CCCC1` [Compound 82] had an IC50 of 1 to 10 µM. Same read-out and setting: under `O=C(NCc1cc(-c2cccs2)[nH]n1)c1cc(C(F)(F)F)ccc1N1CCCC1` [Compound 83] stands 1 to 10 µM.
